Measured values taken from the supplement of paper PMC13380429.

Key:
[1] = system: A549-ACE2 infected with SARS-CoV-2; assay: SARS-CoV-2 infection rate relative to DMSO; higher = more infection; conditions: 24 h
[2] = system: A549-ACE2 infected with SARS-CoV-2; assay: cell count relative to DMSO; higher = less toxic; conditions: 24 h
Calu-3 [3] = assay: cell viability relative to DMSO; higher = less toxic; conditions: 72 h
Vero E6 [4] = assay: as above; conditions: 72 h
HepG2 [5] = assay: as above; conditions: 72 h
Caco-2 [6] = assay: as above; conditions: 72 h
U2OS [7] = assay: as above; conditions: 72 h
Calu-3 [8] = assay: relative viability EC50 (midpoint between 100% and the lowest measured viability); higher = less toxic; conditions: 72 h
Vero E6 [9] = assay: as above; conditions: 72 h
U2OS [10] = assay: as above; conditions: 72 h
[11] = system: A549-ACE2 infected with SARS-CoV-2; assay: morphology score (similarity to uninfected cells); higher = more like uninfected cells; conditions: 24 h
Calu-3 [12] = assay: drug sensitivity score (DSS) for viability; higher = more toxic; extreme values may be limits of the assay; conditions: 72 h
Vero E6 [13] = assay: as above; conditions: 72 h
HepG2 [14] = assay: as above; conditions: 72 h
Caco-2 [15] = assay: as above; conditions: 72 h
U2OS [16] = assay: as above; conditions: 72 h
A549-ACE2 = assay: drug-induced phospholipidosis relative to tamoxifen; higher = more phospholipidosis
HepG2 [17] = assay: relative viability EC50 (midpoint between 100% and the lowest measured viability); higher = less toxic; conditions: 72 h
Caco-2 [18] = assay: as above; conditions: 72 h

COc1cc2ncnc(Nc3cccc(Cl)c3)c2cc1OC [tyrphostin-AG-1478]
Conditions	SARS-CoV-2 infection rate, [1] [%]	cell count, [2] [%]	cell viability, Caco-2 [6] [%]	cell viability, Calu-3 [3] [%]	cell viability, HepG2 [5] [%]	cell viability, U2OS [7] [%]	cell viability, Vero E6 [4] [%]	morphology score, [11]
1 nM	–	–	102	107	99.7	103	98.6	–
10 nM	–	–	88.6	103	85.3	96.1	100	–
100 nM	–	–	97.4	93.6	101	96.2	84.9	–
0.3 µM	101	97	–	–	–	–	–	-0.07
1000 nM	–	–	80.5	45.1	100	92.7	64.3	–
3 µM	91	102	–	–	–	–	–	0.32
10 µM	57	106	–	–	–	–	–	0.52
10000 nM	–	–	72.4	31.3	67.3	87.7	48.2	–
30 µM	19	69	–	–	–	–	–	0.35

Conditions	drug sensitivity score	relative viability EC50 [µM]
Caco-2 [15]	3.1	–
Calu-3 [8]	–	0.422
Calu-3 [12]	11.1	–
HepG2 [14]	1.5	–
U2OS [10]	–	> 10
U2OS [16]	0.1	–
Vero E6 [9]	–	0.335
Vero E6 [13]	8.2	–

drug-induced phospholipidosis [%], A549-ACE2
Conditions	0.3 µM	0.833333 µM	3.33333 µM	6.66667 µM	10 µM	30 µM
24 h	3.78	0.06	-0.97	3.23	3.9	3.18
48 h	3.39	-0.45	-0.89	-0.86	1.84	-2.59
72 h	0.893	-2.52	-3.56	-0.746	0.696	-0.954

CC(C)(Sc1ccncc1-c1ccc(C#N)c2ccccc12)C(=O)O [verinurad]
cell viability [%]
Conditions	Caco-2 [6]	Calu-3 [3]	HepG2 [5]	U2OS [7]	Vero E6 [4]
1 nM	97.6	106	103	103	95.3
10 nM	93.2	93.7	99.8	99.5	101
100 nM	101	90.9	93.3	96.8	91.9
1000 nM	95	113	105	99.8	99.4
10000 nM	101	96.8	122	103	106

Conditions	drug sensitivity score	relative viability EC50 [µM]
Caco-2 [15]	0	–
Caco-2 [18]	–	> 10
Calu-3 [8]	–	> 10
Calu-3 [12]	0	–
HepG2 [14]	0	–
HepG2 [17]	–	> 10
U2OS [10]	–	> 10
U2OS [16]	0	–
Vero E6 [9]	–	> 10
Vero E6 [13]	0	–

O=c1ncccn1[C@@H]1O[C@H](CO)[C@@H](O)[C@H]1O [zebularine]
cell viability [%]
Conditions	Caco-2 [6]	Calu-3 [3]	HepG2 [5]	U2OS [7]	Vero E6 [4]
1 nM	103	94.4	113	97.8	99.6
10 nM	102	102	97.5	99.2	99.1
100 nM	104	85.9	111	96.8	102
1000 nM	97.9	96.7	101	101	97.9
10000 nM	101	84.4	103	92.6	99.1

Conditions	drug sensitivity score	relative viability EC50 [µM]
Caco-2 [15]	0	–
Caco-2 [18]	–	> 10
Calu-3 [8]	–	> 10
Calu-3 [12]	0.3	–
HepG2 [14]	0	–
HepG2 [17]	–	> 10
U2OS [10]	–	> 10
U2OS [16]	0	–
Vero E6 [9]	–	> 10
Vero E6 [13]	0	–
